{
  "source": "patent US20190038650A1",
  "about": "“COMPOSITIONS AND METHODS FOR THE TREATMENT OF ATHEROSCLEROSIS AND HEPATOSTEATOSIS AND OTHER DISEASES” (priority 2016, published 2019)",
  "key": {"Mice fed a Western diet [1]": {"system": "Mice fed a Western diet", "assay": "Insulin tolerance test", "assay_type": "in vivo", "conditions": "compared to saline and sucrose, FIG. 3", "experimental": "Additionally, an insulin tolerance test was performed in the presence of saline, sucrose or trehalose."}, "[2]": {"conditions": "orally and intravenously, doses substantially higher than the intended therapeutic dose; cited from earlier work"}, "[3]": {"assay": "Trehalose tolerance test, serum trehalose in trehalase knockout mice", "assay_type": "in vivo", "conditions": "trehalose IP 1 g/kg, trehalase knockout mice versus control mice", "experimental": "To determine if inhibition of trehalase could enhance the efficacy of trehalose, a trehalase knockout mouse was generated. Control mice and trehalase knockout mice were then administered trehalose IP at 1 g/kg. Of 12 chimeric founders, a trehalose tolerance test was performed on n=3 non-targeted controls and n=5 chimeric mice. […] The serum concentration of trehalose at 30 minutes post-administration was measured."}, "Mice fed a Western diet [4]": {"system": "Mice fed a Western diet", "assay": "Steatosis / body composition in mice fed a Western diet", "assay_type": "in vivo", "experimental": "Mice were fed a Western diet in combination with saline, sucrose or trehalose. The saline, sucrose or trehalose was administered orally and IP. Oral administration was provided in the cage water supply at 2% w/v in water (w/v=weight/volume). Additionally, 2 grams trehlose/kg mouse weight was injected IP. IP injection was 3 times/week. […] It was then determined if this significant reduction in body mass was due to fat mass or lean mass. […] (FIG. 2B). It was then determined the location of the increase in fat mass via tissue weights. […] Finally, the amount of liver triglycerides was measured in each group."}, "[5]": {"conditions": "cited from earlier work"}, "ApoE deficient mice": {"system": "ApoE deficient mice", "assay": "Atherosclerotic lesion size in ApoE deficient mice fed a Western diet", "assay_type": "in vivo", "conditions": "trehalose oral and IP, 2 months post-treatment, relative to vehicle", "experimental": "ApoE deficient mice were fed a Western diet with and without treatment with trehalose. Trehalose was administered oral and IP. At 2 months post-treatment the presence of atherosclerosis was evaluated."}, "[6]": {"conditions": "oral; cited from earlier work"}},
  "data": [
    {"smiles": "OC[C@H]1O[C@H](O[C@H]2O[C@H](CO)[C@@H](O)[C@H](O)[C@H]2O)[C@H](O)[C@@H](O)[C@@H]1O", "note": "[trehalose]", "values": [
      {"measurement": "insulin resistance (insulin tolerance test)", "setting": "Mice fed a Western diet [1]", "value": "less insulin resistance was observed"},
      {"measurement": "safety and toxicity", "setting": "[2]", "value": "found to be safe"},
      {"measurement": "serum concentration of trehalose at 30 minutes post-administration", "setting": "[3]", "value": "significantly higher serum levels of trehalose"},
      {"measurement": "lean mass", "setting": "Mice fed a Western diet [4]; FIG. 2B", "value": "not lean mass"},
      {"measurement": "liver triglycerides", "setting": "Mice fed a Western diet [4]; FIG. 2D", "value": "significant reduction in liver triglycerides"},
      {"measurement": "body mass", "setting": "Mice fed a Western diet [4]; Western diet, oral 2% w/v in water plus 2 g/kg IP 3 times/week, at 13-16 weeks", "value": "significantly decreased body mass"},
      {"measurement": "fat mass", "setting": "Mice fed a Western diet [4]; at 16 weeks, relative to saline or sucrose", "value": "significant reduction in fat mass"},
      {"measurement": "subcutaneous (subQ) fat mass", "setting": "Mice fed a Western diet [4]; tissue weights, FIG. 2C", "value": "reduction of fat mass in the subcutaneous (subQ) fat"},
      {"measurement": "tissue mass in the liver", "setting": "Mice fed a Western diet [4]; tissue weights, FIG. 2C", "value": "significant reduction in tissue mass in the liver"},
      {"measurement": "oral amount that may cause diarrhea and bloating", "setting": "[5]", "value": "40-50 gram per day"},
      {"measurement": "oral amount that frequently causes diarrhea, bloating and discomfort", "setting": "[5]; humans", "value": "higher than 50 g a day"},
      {"measurement": "atherosclerotic lesion size", "setting": "ApoE deficient mice", "value": "significantly reduced atherosclerotic lesion size"},
      {"measurement": "ingested trehalose absorbed into the blood stream", "setting": "[6]", "value": "Less than 0.5%"},
      {"measurement": "trehalose not absorbed into the blood stream", "setting": "[6]", "value": "Over 99.5%"}
    ]}
  ]
}
